In the experiment the test system is test plant species. The experiment is described as follows: Post-emergent herbicidal activity test (greenhouse, foliar spray, visual growth reduction). As to conditions: post-emergence, 336 h, 140 g ai/ha. It counts as in vivo. The protocol:
Post-emergent Test: Seeds or nutlets of the desired test plant species were planted in Sun Gro Metro-Mix® 360 planting mixture, which typically has a pH of 6.0 to 6.8 and an organic matter content of about 30 percent, in plastic pots with a surface area of 64 square centimeters. In some aspects, to ensure good germination and healthy plants, a fungicide treatment and/or other chemical or physical treatment was applied. The plants were grown for 7-21 d in a greenhouse with an approximate 15 h photoperiod which was maintained at 23-29° C. during the day and 22-28° C. during the night. Nutrients and water were added on a regular basis and supplemental lighting was provided with overhead metal halide 1000-Watt lamps as necessary. Plants were used for testing when they reached the first or second true leaf stage. A weighed amount, determined by the highest rate to be tested, of each test compound was placed in a 25 mL glass vial and was dissolved in 4 mL of a 97:3 v/v mixture of acetone and DMSO to obtain concentrated stock solutions. […] The concentrated stock solutions obtained were diluted with 20 mL of an aqueous mixture containing acetone, water, isopropyl alcohol, DMSO, […] crop oil concentrate, and X-77 surfactant in a 48.5:39:10:1.5:1.0:0.02 v/v ratio to obtain spray solutions containing the application rate. Compound requirements are based upon a 12 mL application volume at a rate of 187 liters per hectare (L/ha). Formulated compounds were applied to the plant material with an overhead Mandel track sprayer equipped with […] nozzles calibrated to deliver 187 L/ha over an application area of 0.64 square meters at a spray height of 18 inches (43 cm) above the average plant canopy height. Control plants were sprayed in the same manner with the solvent blank. The treated plants and control plants were placed in a greenhouse as described above and watered by subirrigation to prevent wash-off of the test compounds. After 14 d, the condition of the test plants as compared with that of the nontreated and control plants was determined visually and scored on a scale of 0 to 100 percent where 0 corresponds to no injury and 100 corresponds to complete control. In the reporting of the results, Table A: Percent Growth Reduction Conversion Table was used.

The mark [1] stands for this setting: ALOMY: blackgrass (Alopecurus myosuroides), 14 days after application, read-out: Visual Growth Reduction (%) 14 Days After Application, ALOMY.
Where [2] appears, read: AMARE: redroot pigweed (Amaranthus retroflexus), 14 days after application, read-out: Visual Growth Reduction (%) 14 Days After Application, AMARE.
Where [3] appears, read: AVEFA: wild oat (Avena fatua), 14 days after application, read-out: Visual Growth Reduction (%) 14 Days After Application, AVEFA.
[4] abbreviates: CHEAL: lambsquarters (Chenopodium album), 14 days after application, read-out: Visual Growth Reduction (%) 14 Days After Application, CHEAL.
[5] abbreviates: CIRAR: canada thistle (Cirsium arvense), 14 days after application, read-out: Visual Growth Reduction (%) 14 Days After Application, CIRAR.
[6] abbreviates: CYPES: yellow nutsedge (Cyperus esculentus), 14 days after application, read-out: Visual Growth Reduction (%) 14 Days After Application, CYPES.
The mark [7] stands for this setting: DIGSA: crabgrass (Digitaria sanguinalis), 14 days after application, read-out: Visual Growth Reduction (%) 14 Days After Application, DIGSA.
[8] abbreviates: barnyardgrass (Echinochloa crus-galli), 14 Days After Application, read-out: Visual Growth Reduction (%) ECHCG.
[9] abbreviates: common chickweed (Stellaria media), 14 Days After Application, read-out: Visual Growth Reduction (%) STEME.
[10] abbreviates: giant foxtail (Setaria faberi), 14 Days After Application, read-out: Visual Growth Reduction (%) SETFA.
Setting [11] is: ivy-leaf morning glory (Ipomoea hederacea), 14 Days After Application, read-out: Visual Growth Reduction (%) IPOHE.
The mark [12] stands for this setting: johnsongrass (Sorghum vulgare), 14 Days After Application, read-out: Visual Growth Reduction (%) SORVU.
Setting [13] is: kochia (Bassia scoparia), 14 Days After Application, read-out: Visual Growth Reduction (%) KCHSC.
Where [14] appears, read: rice (Oryza sativa), 14 Days After Application, read-out: Visual Growth Reduction (%) ORYSA.
Where [15] appears, read: wheat, spring (Triticum aestivum), 14 Days After Application, read-out: Visual Growth Reduction (%) TRZAS.

Like-named read-outs stand apart in the source and are kept apart here.

For `COC(=O)c1nc(-c2ccc(C3CC3)cc2Cl)ccc1Cl` [F15, methyl 3-chloro-6-(2-chloro-4-cyclopropylphenyl)picolinate], the pest or weed control at 140 g/ha lay within 0 to 29% under setting [1]; 30 to 44% under setting [2]; 0 to 29% under setting [3]; 45 to 59% under setting [4]; 0 to 29% under setting [5]; 30 to 44% under setting [6]. Also, the pest or weed control at 140 g/ha was in the range of 0 to 29% under setting [7]; 0 to 29% under setting [8]; 0 to 29% under setting [9]; 0 to 29% under setting [10]; 95 to 100% under setting [11]; 0 to 29% under setting [12]. Moreover, the pest or weed control at 140 g/ha reads like this: under setting [13], 0 to 29%; under setting [14], 0 to 29%; under setting [15], 0 to 29%.

For the compound `C#Cc1cc(C(F)(F)F)ccc1-c1ccc(Cl)c(C(=O)OC)n1` [F16, methyl 3-chloro-6-(2-ethynyl-4-(trifluoromethyl)phenyl) picolinate], the pest or weed control at 140 g/ha was in the range of 0 to 29% under setting [1]; 30 to 44% under setting [2]; 0 to 29% under setting [3]; 0 to 29% under setting [4]; 30 to 44% under setting [5]; 0 to 29% under setting [6]. In addition, the pest or weed control at 140 g/ha by setting is: under setting [7], 0 to 29%; under setting [8], 0 to 29%; under setting [9], 0 to 29%; under setting [10], 0 to 29%; under setting [11], 95 to 100%; under setting [12], 75 to 84%. For the same compound, the pest or weed control at 140 g/ha fell in the range of 0 to 29% under setting [13], 0 to 29% under setting [14] and 0 to 29% under setting [15].

Consider `COC(=O)c1nc(-c2ccc(C(F)(F)F)cc2C(F)(F)F)ccc1Cl` [F17, Methyl 6-(2,4-bis(trifluoromethyl)phenyl)-3-chloropicolinate], for which the pest or weed control at 140 g/ha is 0 to 29% under setting [1]; 60 to 74% under setting [2]; 0 to 29% under setting [3]; 60 to 74% under setting [4]; 0 to 29% under setting [5]; 0 to 29% under setting [6]. Moreover, the pest or weed control at 140 g/ha by setting is: under setting [7], 45 to 59%; under setting [8], 0 to 29%; under setting [9], 0 to 29%; under setting [10], 0 to 29%; under setting [11], 95 to 100%; under setting [12], 85 to 94%. The pest or weed control at 140 g/ha runs as follows: under setting [13], 0 to 29%; under setting [14], 0 to 29%; under setting [15], 0 to 29%.

On to `C#Cc1ccc(-c2ccc(Cl)c(C(=O)OC)n2)c(Cl)c1` [F18, Methyl 3-chloro-6-(2-chloro-4-ethynylphenyl) picolinate], for which the pest or weed control at 140 g/ha reads like this: under setting [1], 0 to 29%; under setting [2], 0 to 29%; under setting [3], 0 to 29%; under setting [4], 0 to 29%; under setting [5], 0 to 29%; under setting [6], 0 to 29%. Further, the pest or weed control at 140 g/ha is 0 to 29% under setting [7]; 0 to 29% under setting [8]; 0 to 29% under setting [9]; 0 to 29% under setting [10]; 0 to 29% under setting [11]; 0 to 29% under setting [12]. Besides, the pest or weed control at 140 g/ha was in the range of 0 to 29% under setting [13], 0 to 29% under setting [14] and 0 to 29% under setting [15].

The values above are taken from patent publication US20230017045A1, “PYRIDINE AND PYRIMIDINE CARBOXYLATE HERBICIDES AND METHODS OF USE THEREOF” (Dow AgroSciences LLC, priority 2017, published 2023).
